Earlier results in patent US8183280B2, “FAP inhibitors” (Vantia Limited, priority 2005, dated 2012).

Test system: syngeneic tumours
Conditions: mice, oral administration; Cancer Res., 2004, 64: 5471

## CC(C)[C@H](N)C(=O)N1CCC[C@H]1B(O)O [ValboroPro]
  anti-tumour activity: potent anti-tumour activity in mice
